Laboratory results as given in US6642217B2, “Triterpenes having human antifungal and antiyeast activity” (Naturtek, LLC, priority 2000, dated 2003).

Columns and labels:
[1] = tested on: Trichophyton tonsuran; assay: Agar dilution method, growth on Sabouraud dextrose agar slants; assay type: cell-based, Trichophyton tonsurans; design: key: +++: Maximum Fungal Growth; ++: Moderate Fungal Growth; +: Minimum Fungal Growth; +/−: Very little Fungal Growth; −: No Fungal Growth; conditions: 12th day after inoculation
Method: (§1) Agar dilution method. Sabouraud Dextrose Agar (Difco Laboratories, Michigan) was prepared according to the manufacturer's instructions. Five ml was dispensed in a 100×25 mm tube and autoclaved. To each tube containing 5.0 ml of liquid agar at 45° C., 0.5, 0.25, 0.12, or 0.063 ml of a DMSO solution of the compound was added to give the final indicated concentrations in Table 2. The agar was then solidified in slants. Fungal cultures were inoculated. The slants were incubated at 25-28° C. for 10-12 days, and the growth of the fungus was recorded every second day.

[2] = tested on: Epidermophyton floccosum; assay: as above; assay type: cell-based; design: key to Fungal growth: +++: Maximum Fungal Growth; ++: Moderate Fungal Growth; +: Minimum Fungal Growth; +/−: Very little Fungal Growth; −: No Fungal Growth; conditions: 12th day after inoculation
Method: as §1

[3] = tested on: Microsporum gypseum; assay: as above; assay type: cell-based; design: key: +++: Maximum Fungal Growth; ++: Moderate Fungal Growth; +: Minimum Fungal Growth; +/−: Very little Fungal Growth; −: No Fungal Growth; conditions: 12th day after inoculation
Method: as §1

[4] = tested on: Trichophyton rubrum; assay: as above; assay type: cell-based; design: key: +++: Maximum Fungal Growth; ++: Moderate Fungal Growth; +: Minimum Fungal Growth; +/−: Very little Fungal Growth; −: No Fungal Growth; conditions: 12th day after inoculation
Method: as §1

[5] = tested on: Pityrosporum ovale; assay: as above; assay type: cell-based; design: key: +++: Maximum Fungal Growth; ++: Moderate Fungal Growth; +: Minimum Fungal Growth; +/−: Very little Fungal Growth; −: No Fungal Growth; conditions: 12th day after inoculation
Method: as §1

[6] = tested on: Microsporum canis; assay: as above; assay type: cell-based; design: key: +++: Maximum Fungal Growth; ++: Moderate Fungal Growth; +: Minimum Fungal Growth; +/−: Very little Fungal Growth; −: No Fungal Growth; conditions: 12th day after inoculation
Method: as §1

[7] = tested on: Epidermophyton floccosum; assay: Direct addition method, solid compound in Sabouraud dextrose agar; assay type: cell-based; design: key: +++: Maximum Fungal Growth; ++: Moderate Fungal Growth; +: Minimum Fungal Growth; +/−: Very little Fungal Growth; −: No Fungal Growth; conditions: 4 mg/mL of agar; 12th day after inoculation
Method: (§2) Direct addition method. Sabouraud dextrose agar was prepared according to the manufacturer's instructions and 5.0 ml was dispensed in each 100×25 mm tube. The tubes were autoclaved. To each tube containing 5.0 ml of liquid agar at 45° C., 20 mg of solid test compound was added, to give a final concentration of 4 mg/ml. The agar was solidified in slants. The fungal cultures were then innoculated. The slants were incubated at 25-28 ° C. for 10-12 days, and the growth of the fungus was recorded every second day. The results in Table 2 indicate growth at the 12th day of inoculation.

[8] = tested on: Trichophyton rubrum; assay: as above; assay type: cell-based; design: key: +++: Maximum Fungal Growth; ++: Moderate Fungal Growth; +: Minimum Fungal Growth; +/−: Very little Fungal Growth; −: No Fungal Growth; conditions: 4 mg/mL of agar; 12th day after inoculation
Method: as §2

[9] = tested on: Pityrosporum ovale; assay: as above; assay type: cell-based; design: key: +++: Maximum Fungal Growth; ++: Moderate Fungal Growth; +: Minimum Fungal Growth; +/−: Very little Fungal Growth; −: No Fungal Growth; conditions: 4 mg/mL of agar; 12th day after inoculation
Method: as §2

[10] = tested on: Microsporum canis; assay: as above; assay type: cell-based; design: key: +++: Maximum Fungal Growth; ++: Moderate Fungal Growth; +: Minimum Fungal Growth; +/−: Very little Fungal Growth; −: No Fungal Growth; conditions: 4 mg/mL of agar; 12th day after inoculation
Method: as §2

[11] = tested on: Trichophyton mentagrophyte; assay: Agar dilution method, growth on Sabouraud dextrose agar slants; assay type: cell-based, Trichophyton mentagrophytes; design: key to Fungal growth: +++: Maximum Fungal Growth; ++: Moderate Fungal Growth; +: Minimum Fungal Growth; +/−: Very little Fungal Growth; −: No Fungal Growth; conditions: 12th day after inoculation
Method: as §1

[12] = tested on: Microsporum audouinni; assay: as above; assay type: cell-based, Microsporum audouinii; design: key: +++: Maximum Fungal Growth; ++: Moderate Fungal Growth; +: Minimum Fungal Growth; +/−: Very little Fungal Growth; −: No Fungal Growth; conditions: 12th day after inoculation
Method: as §1

[13] = tested on: Microsporum audouinii; assay: Summary of anti-fungal assays (direct addition, agar dilution, liquid culture); assay type: cell-based; conditions: stated in words (Tables 1a/1b, text to Table 5)
Method: (§3) This example summarizes the results of various other assays of the anti-fungal activity of betulin derivatives. Table 5 summarizes results using different assay methods—direct addition, agar dilution, and direct addition to liquid culture, as disclosed in the previous three Examples. In some cases, only one type of assay was done with a compound. In other cases, the compound was tested by multiple assays.

[14] = tested on: P. ovale; assay: as above; assay type: cell-based, Pityrosporum ovale; conditions: stated in words (Tables 1a/1b, text to Table 5)
Method: as §3

[15] = tested on: Microsporum audouinni; assay: Direct addition method, solid compound in Sabouraud dextrose agar; assay type: cell-based, Microsporum audouinii; design: key to Fungal growth: +++: Maximum Fungal Growth; ++: Moderate Fungal Growth; +: Minimum Fungal Growth; +/−: Very little Fungal Growth; −: No Fungal Growth; conditions: for Fungal growth: 4 mg/mL of agar, 12th day after inoculation
Method: as §2

[16] = tested on: Pityrosporum ovale; assay: Direct addition into the Pityrosporum agar; assay type: cell-based; design: key to Pityrosporum ovale growth: +++: Maximum Growth; ++: Moderate Growth; +: Minimum Growth; +/−: Very Little Growth; −: No Growth; conditions: for Growth inhibition of Pityrosporum ovale by the direct addition method: 4 mg/ml; for Pityrosporum ovale growth: 4 mg/ml in the agar, 18 hours after inoculation
Method: as §2, with “The slants were incubated at 25-28 ° C. for 10-12 days, and the growth of the fungus was recorded every second day. The results in Table 2 indicate growth at the 12th day of inoculation.” left out

[17] = tested on: Epidermophyton floccosum; assay: Summary of anti-fungal assays (direct addition, agar dilution, liquid culture); assay type: cell-based; conditions: stated in words (Tables 1a/1b, text to Table 5)
Method: as §3

[18] = tested on: Trichophyton rubrum; assay: as above; assay type: cell-based; conditions: stated in words (Tables 1a/1b, text to Table 5)
Method: as §3

[19] = tested on: Trichophyton mentagrophytes; assay: as above; assay type: cell-based; conditions: stated in words (Tables 1a/1b, text to Table 5)
Method: as §3

[20] = tested on: Microsporum canis; assay: Direct addition method, solid compound in Sabouraud dextrose agar; assay type: cell-based; conditions: against Microsporum canis
Method: as §2

[21] = tested on: Trichophyton tonsurans; assay: Summary of anti-fungal assays (direct addition, agar dilution, liquid culture); assay type: cell-based; conditions: stated in words (Tables 1a/1b, text to Table 5)
Method: as §3

Compound: C=C(C)[C@@H]1CCC2(CO)CC[C@@]3(C)C(CCC4[C@@]5(C)C=C(O)C(=O)C(C)(C)C5CC[C@]43C)C12 (stereo partly shown)
- melting point: 167 to 170 °C (dec.)

Compound: CC1(C)CCC23CC[C@@]4(C)C(CCC5[C@@]6(C)CC[C@H](O)C(C)(C)C6CC[C@]54C)C2C1OC3 (stereo partly drawn) [Allobetulin, oleanan-3β-ol-28,19-β-ether]
- Fungal growth ([1]; 9 μg/ml): +++
- Fungal growth ([1]; 19 μg/ml): ++
- Fungal growth ([1]; 38 μg/ml): ++
- Fungal growth ([1]; 75 μg/ml): −
- Fungal growth ([2]; 9 μg/ml): ++
- Fungal growth ([2]; 19 μg/ml): +
- Fungal growth ([2]; 38 μg/ml): +
- Fungal growth ([2]; 75 μg/ml): −
- Fungal growth ([3]; 9 μg/ml): +++
- Fungal growth ([3]; 19 μg/ml): ++
- Fungal growth ([3]; 38 μg/ml): ++
- Fungal growth ([3]; 75 μg/ml): −
- Fungal growth ([4]; 9 μg/ml): ++
- Fungal growth ([4]; 19 μg/ml): ++
- Fungal growth ([4]; 38 μg/ml): +
- Fungal growth ([4]; 75 μg/ml): −
- Fungal growth ([5]; 9 μg/ml): +++
- Fungal growth ([5]; 19 μg/ml): +++
- Fungal growth ([5]; 38 μg/ml): ++
- Fungal growth ([5]; 75 μg/ml): −
- Fungal growth ([6]; 9 μg/ml): +++
- Fungal growth ([6]; 19 μg/ml): ++
- Fungal growth ([6]; 38 μg/ml): ++
- Fungal growth ([6]; 75 μg/ml): −
- Fungal growth [7]: −
- Fungal growth [8]: +
- Fungal growth [9]: −
- Fungal growth [10]: ++
- Fungal growth ([11]; 9 μg/ml): ++
- Fungal growth ([11]; 19 μg/ml): +
- Fungal growth ([11]; 38 μg/ml): +
- Fungal growth ([11]; 75 μg/ml): −
- Fungal growth ([12]; 9 μg/ml): +/−
- Fungal growth ([12]; 19 μg/ml): −
- Fungal growth ([12]; 38 μg/ml): −
- Fungal growth ([12]; 75 μg/ml): −
- Active against Microsporum audouinii [13]: Microsporum audouinii
- Active against Pityrosporum ovale [14]: Pityrosporum ovale
- Fungal growth [15]: +
- Growth inhibition of Pityrosporum ovale by the direct addition method [16]: inhibited the growth
- Pityrosporum ovale growth [16]: +/−

Compound: CC(C)C(N)C(=O)OC1CCC2(C)C(CCC3(C)C2CCC2C4C5OCC4(CCC5(C)C)CCC23C)C1(C)C [Allobetulin-3-L-valine]
- Fungal growth [7]: −
- Fungal growth [8]: +
- Fungal growth [9]: −
- Fungal growth [10]: +
- Active against Microsporum audouinii [13]: Microsporum audouinii
- Active against Pityrosporum ovale [14]: Pityrosporum ovale
- Fungal growth [15]: −
- best anti-fungal or anti-yeast activity by the direct addition method ([15]; against Microsporum audouinii): against Microsporum audouinii
- Growth inhibition of Pityrosporum ovale by the direct addition method [16]: inhibited the growth
- Pityrosporum ovale growth [16]: +

Compound: CC(=O)OC1CC[C@@]2(C)C(CC[C@]3(C)C2CCC2C4C5OC(=O)C4(CCC5(C)C)CC[C@@]23C)C1(C)C (stereo partly drawn) [Allobetulinlactone-3-acetate, oleanan-28,19-β-lactone-3-acetate]
- melting point: 312.5 to 315.4 °C (dec.)

Compound: C=C(C)C1CCC2(COC(=O)CC(C)(C)CC(=O)O)CCC3(C)C(CCC4C5(C)CCC(OC(=O)CC(C)(C)CC(=O)O)C(C)(C)C5CCC43C)C12 (stereo not shown) [Betulin-3,28-di(3′,3′-dimethyl)glutarate]
- Active against Epidermophyton floccosum [17]: against Epidermophyton floccosum
- Active against Trichophyton rubrum [18]: Trichophyton rubrum,
- Active against Microsporum audouinii [13]: Microsporum audouinii,
- Active against Trichophyton mentagrophytes [19]: Trichophyton mentagrophytes,

Compound: C=C(C)C1CCC2(COC(=O)CCC(=O)O)CC[C@@]3(C)C(CCC4[C@@]5(C)CCC(OC(=O)CCC(=O)O)C(C)(C)C5CC[C@]43C)C12 (stereo partly shown) [Betulin-3,28-disuccinate]
- Fungal growth ([1]; 125 μg/ml): ++
- Fungal growth ([1]; 250 μg/ml): +
- Fungal growth ([1]; 500 μg/ml): +
- Fungal growth ([1]; 1000 μg/ml): −
- best anti-fungal or anti-yeast activity by the direct addition method [20]: against Microsporum canis
- Fungal growth ([2]; 125 μg/ml): ++
- Fungal growth ([2]; 250 μg/ml): +
- Fungal growth ([2]; 500 μg/ml): +
- Fungal growth ([2]; 1000 μg/ml): −
- Fungal growth ([3]; 125 μg/ml): ++
- Fungal growth ([3]; 250 μg/ml): +
- Fungal growth ([3]; 500 μg/ml): +
- Fungal growth ([3]; 1000 μg/ml): −
- Fungal growth ([4]; 125 μg/ml): ++
- Fungal growth ([4]; 250 μg/ml): +
- Fungal growth ([4]; 500 μg/ml): +
- Fungal growth ([4]; 1000 μg/ml): −
- Fungal growth ([5]; 125 μg/ml): +++
- Fungal growth ([5]; 250 μg/ml): +++
- Fungal growth ([5]; 500 μg/ml): +++
- Fungal growth ([5]; 1000 μg/ml): +
- Fungal growth ([6]; 125 μg/ml): ++
- Fungal growth ([6]; 250 μg/ml): +
- Fungal growth ([6]; 500 μg/ml): +
- Fungal growth ([6]; 1000 μg/ml): −
- Fungal growth [7]: −
- Fungal growth [8]: +
- Fungal growth [9]: −
- Fungal growth [10]: −
- Fungal growth ([11]; 125 μg/ml): ++
- Fungal growth ([11]; 250 μg/ml): +
- Fungal growth ([11]; 500 μg/ml): +
- Fungal growth ([11]; 1000 μg/ml): −
- Fungal growth ([12]; 125 μg/ml): +
- Fungal growth ([12]; 250 μg/ml): −
- Fungal growth ([12]; 500 μg/ml): −
- Fungal growth ([12]; 1000 μg/ml): −
- Active against Microsporum audouinii ([13]; listed as Betulin-3.28-di-succinate): Microsporum audouinii,
- Fungal growth [15]: +
- Pityrosporum ovale growth [16]: +

Compound: C=C(C)C1CCC2(COC(=O)CCCC(=O)O)CCC3(C)C(CCC4C5(C)CCC(O)C(C)(C)C5CCC43C)C12 (stereo not shown) [Betulin-28-glutarate]
- Fungal growth [7]: −
- Fungal growth [8]: +
- Fungal growth [9]: −
- Fungal growth [10]: +
- Active against Epidermophyton floccosum ([17]; listed as betulin-28-glutarate): against Epidermophyton floccosum
- Active against Trichophyton rubrum [18]: Trichophyton rubrum,
- Active against Trichophyton tonsurans [21]: Trichophyton tonsurans,
- Active against Trichophyton mentagrophytes [19]: Trichophyton mentagrophytes,
- Active against Pityrosporum ovale [14]: Pityrosporum ovale,
- Fungal growth [15]: +
- Growth inhibition of Pityrosporum ovale by the direct addition method [16]: inhibited the growth
- Pityrosporum ovale growth [16]: +/−
